According to patent publication US12291528B2, “Crystalline imidazo[4,5-b]pyridine compound, pharmaceutical compositions, and their use in treating medical conditions” (Genzyme Corporation, priority 2021, dated 2025):
Read-outs that look alike come from different tables or passages of the source.

Tests used:
[1] = Knee joint concentration and knee/plasma ratio after intra-articular administration to rats; type: in vivo, Sprague Dawley rats; conditions: for knee concentration of compound (in words): 0.1 mg dose, 672 hours, majority of animals
Protocol: (§1) Male rats were administered one of the following Test Articles via intra-articular administration to the left knee joint and thereafter pharmacokinetic properties were monitored: crystalline 3-(3-methoxy-4-((4-methoxybenzyl)oxy)benzyl)-6-(1-methyl-1H-pyrazol-4-yl)-3H-imidazo[4,5-b]pyridin-2-amine monohydrate Form 3 (“Form 3 Compound”) or crystalline 3-(3-methoxy-4-((4-methoxybenzyl)oxy)benzyl)-6-(1-methyl-1H-pyrazol-4-yl)-3H-imidazo[4,5-b]pyridin-2-amine monohydrate Form 1 (“Form 1 Compound”).
(§2) Male Sprague Dawley rats were allocated into four groups, where each group contained 12 rats having a weight in the range of 250 g to 300 g and an age of 7 to 9 weeks. Test Article was administered in the form of a suspension via intra-articular injection to the left knee joint of the rats according to the experimental design set forth in Table 1 below.
(§3) Each Test Article contained the specified methoxy-4-((4-methoxybenzyl)oxy)benzyl)-6-(1-methyl-1H-pyrazol-4-yl)-3H-imidazo[4,5-b]pyridin-2-amine monohydrate compound suspended in vehicle. Vehicle was […], 4.5% sorbitol, in aqueous phosphate buffer at pH 7.4. Each Test Article in the form of a suspension contained 20 mg/mL methoxy-4-((4-methoxy-benzyl)oxy)benzyl)-6-(1-methyl-1H-pyrazol-4-yl)-3H-imidazo[4,5-b]pyridin-2-amine monohydrate in the specified crystalline form.
The left knee joint (without injuring the articular capsule) of the rats together with 5-10 mm of both tibia and femur was collected from the first 6 animals/group after sacrifice at the last blood collection time point at approximately 672 hours postdose. The harvested knee joint was weighed. The left knee joint (without injuring the articular capsule) of the rats together with 5-10 mm of both tibia and femur was collected from the second 6 animals/group after sacrifice at the last blood collection time point at approximately 1344 hours postdose. The harvested knee joint was weighed. Tissue samples were maintained on dry ice prior to storage at −60 to −80° C. The knee joint samples were pulverized, then extracted with acetonitrile/water to provide a solution that was analyzed by using liquid chromatograph-mass spectrometry to determine the amount of the compound methoxy-4-((4-methoxybenzyl)oxy)benzyl)-6-(1-methyl-1H-pyrazol-4-yl)-3H-imidazo[4,5-b]pyridin-2-amine.

[2] = Pharmacokinetic parameters in plasma after intra-articular administration to rats; type: in vivo, Sprague Dawley rats; conditions: for Tmax / AUC(0-t) / AUC0-inf / Cmax / AUC0-672 / AUC0-1344 / Ratio Result from Compound Form 3/Compound Form 1: AUC0-672 / Ratio Result from Compound Form 3/Compound Form 1: AUC0-1344 / Ratio Result from Compound Form 3/Compound Form 1: AUC0-inf / Ratio Result from Compound Form 3/Compound Form 1: Cmax: plasma; for Tmax / AUC(0-t) / AUC0-inf / Cmax / AUC0-672 / AUC0-1344: male rat; for Tmax: range printed in row below; for AUC(0-t) / AUC0-inf / Cmax / AUC0-672 / AUC0-1344: mean
Protocol: as §1, §2, §3
Blood samples were collected from the jugular vein of the rats via syringe and needle and transferred into tubes containing K3EDTA. Blood samples were collected from the first six animals/group at 2 minutes, 10 minutes, 1 hr, 4 hr, 12 hr, 72 hr, 336 hr, and 672 hr after administration of Test Article. Blood samples were collected from the second six animals/group at 5 minutes, 0.5 hr, 2 hr, 8 hr, 24 hr, 168 hr, 1008 hr, and 1344 hr after administration of Test Article. Following centrifugation of the blood samples, plasma was cooled using dry ice until it was subjected to analytical analysis using liquid chromatograph-mass spectrometry to determine the amount of the compound methoxy-4-((4-methoxybenzyl)oxy)benzyl)-6-(1-methyl-1H-pyrazol-4-yl)-3H-imidazo[4,5-b]pyridin-2-amine.

[3] = Comparison of stability: temperature of dehydration; type: physicochemical
Text: Stability of crystalline 3-(3-methoxy-4-((4-methoxybenzyl)oxy)benzyl)-6-(1-methyl-1H-pyrazol-4-yl)-3H-imidazo[4,5-b]pyridin-2-amine monohydrate Form 3 was compared to crystalline 3-(3-methoxy-4-((4-methoxybenzyl)oxy)benzyl)-6-(1-methyl-1H-pyrazol-4-yl)-3H-imidazo[4,5-b]pyridin-2-amine monohydrate Form 1. The physical property analyzed was temperature of dehydration. Crystalline 3-(3-methoxy-4-((4-methoxybenzyl)oxy)benzyl)-6-(1-methyl-1H-pyrazol-4-yl)-3H-imidazo[4,5-b]pyridin-2-amine monohydrate Form 1 is that described in international patent application publication WO 2016/100677.

[4] = Dialysis dissolution in simulated intra-articular fluid; type: physicochemical; conditions: for average release rate: at the 7 day time point, PBS pH 7.4 with BSA, 37° C.; for average release rate / one-half dissolution time: listed as crystalline 3-(3-methoxy-4-(4-methoxybenzyl)oxy)benzyl)-6-(1-methyl-1H-pyrazol-, monohydrate; for one-half dissolution time: dialysis bag, BSA/sodium hyaluronate in PBS pH 7.4, 37° C., 20 RPM
Protocol: Dialysis dissolution of the following Test Compositions in simulated intra-articular fluid was analyzed: • Crystalline 3-(3-methoxy-4-((4-methoxybenzyl)oxy)benzyl)-6-(1-methyl-1H-pyrazol-4-yl)-3H-imidazo[4,5-b]pyridin-2-amine Monohydrate Form 3, and • Crystalline 3-(3-methoxy-4-((4-methoxybenzyl)oxy)benzyl)-6-(1-methyl-1H-pyrazol-4-yl)-3H-imidazo[4,5-b]pyridin-2-amine Monohydrate Form 1.
Procedurally, Test Composition was placed into a dialysis bag along with Medium A. The dialysis bag was then closed and placed into a closed bottle containing Medium B. Medium A and B were preheated to 37° C. before use in the experiment. The closed bottles were placed into a rotating mixer system operating at 20 RPM so as to avoid suspension sedimentation inside the dialysis bag. An aliquot of Medium B from the bottle was removed at the following time points and analyzed by high-performance liquid chromatography with UV detection to determine the amount of 3-(3-methoxy-4-((4-methoxybenzyl)oxy)benzyl)-6-(1-methyl-1H-pyrazol-4-yl)-3H-imidazo[4,5-b]pyridin-2-amine in Medium B due to dialysis dissolution of the Test Composition from Medium A through the dialysis bag to Medium B: 3 hr, 6 hr, 24 hr, 29 hr, 48 hr, 72 hr, 144 hr, 168 hr, 192 hr, 216 hr, and 240 hr. One Test Composition was analyzed at the 360 hour timepoint. Medium A was bovine serum albumin (BSA) at 40 g/L (+0.2 g/L sodium azide), sodium hyaluronate at 3 g/L in reconstituted phosphate buffer saline pH 7.4. Medium B was bovine serum albumin (BSA) at 40 g/L (+0.2 g/L sodium azide) in reconstituted phosphate buffer saline pH 7.4.

Dynamic vapor sorption = type: physicochemical; conditions: 25° C., 2 cycles of increasing and decreasing relative humidity, steps of 5% RH
Protocol: A dynamic vapor sorption isotherm plot of crystalline 3-(3-methoxy-4-((4-methoxybenzyl)oxy)benzyl)-6-(1-methyl-1H-pyrazol-4-yl)-3H-imidazo[4,5-b]pyridin-2-amine monohydrate Form 3 is provided in FIG. 3. The dynamic vapor sorption isotherm plot results are from the procedure where after a drying stage at 0% relative humidity, compound sample was exposed to 2 cycles of increasing and decreasing relative humidity at 25° C., with steps of 5% relative humidity, where mass of the sample was recorded throughout the experiment.

[5] = 0.1 mg/knee, 672 hr, monohydrate
[6] = 1 mg/knee, 1344 hr, monohydrate
[7] = 0.1 mg/knee intra-articular, monohydrate
[8] = 1 mg/knee intra-articular, monohydrate

COc1ccc(COc2ccc(Cn3c(N)nc4cc(-c5cnn(C)c5)cnc43)cc2OC)cc1 [Form 1 Compound, 3-(3-methoxy-4-((4-methoxybenzyl)oxy)benzyl)-6-(1-methyl-1H-pyrazol-4-yl)-3H-imidazo[4,5-b]pyridin-2-amine monohydrate, reference compound]
knee concentration of compound (in words) ([1]; monohydrate): below the limit of quantification in the majority of animals | Mean Knee Concentration of Compound [1, 5]: 852 ng/g | Mean Knee/Plasma Concentration Ratio [1, 5]: 58800 | Mean Knee Concentration of Compound ([1]; 0.1 mg/knee, 1344 hr, monohydrate): <LLOQ | Mean Knee Concentration of Compound ([1]; 1 mg/knee, 672 hr, monohydrate): 37400 ng/g | Mean Knee/Plasma Concentration Ratio ([1]; 1 mg/knee, 672 hr, monohydrate): 22100 | Mean Knee Concentration of Compound [1, 6]: 4560 ng/g | Mean Knee/Plasma Concentration Ratio [1, 6]: 19000 | Tmax ([2]; Sprague Dawley, 0.1 mg/knee intra-articular): 4 h | AUC(0-t) ([2]; male, Sprague Dawley, rat, 0.1 mg, 0.1 mg/knee intra-articular, read-out: AUC0-672): 1350 ng·h/mL | AUC0-inf ([2]; male, Sprague Dawley, rat, 0.1 mg, 0.1 mg/knee intra-articular, read-out: AUC0-inf): 1290 ng·h/mL | AUC(0-t) ([2]; male, Sprague Dawley, rat, 0.1 mg, 0.1 mg/knee intra-articular, summary from second six animals, read-out: AUC0-1344): 1330 ng·h/mL | Cmax [2, 7]: 34.3 ng/mL | AUC0-672 [2, 8]: 10600 ng·h/mL | AUC0-inf [2, 8]: 11800 ng·h/mL | Cmax [2, 8]: 71.6 ng/mL | AUC0-1344 ([2]; 1 mg/knee intra-articular, summary from second six animals, monohydrate): 11100 ng·h/mL | dehydration behaviour ([3]; room temperature, stream of nitrogen gas): undergo dehydration at room temperature | average release rate [4]: 0.54 %/hr | one-half dissolution time [4]: 66 h

COc1ccc(COc2ccc(Cn3c(N)nc4cc(-c5cnn(C)c5)cnc43)cc2OC)cc1 [Form 3 Compound, 3-(3-methoxy-4-((4-methoxybenzyl)oxy)benzyl)-6-(1-methyl-1H-pyrazol-4-yl)-3H-imidazo[4,5-b]pyridin-2-amine monohydrate]
knee concentration of compound (in words) ([1]; monohydrate): consistently higher than the concentration | Knee concentration: Ratio of Form 3 Compound/Form 1 Compound ([1]; 0.1 mg/knee, 672 hr): 5.62 | Knee/plasma ratio: Ratio of Form 3 Compound/Form 1 Compound ([1]; 0.1 mg/knee, 672 hr): 0.733 | Mean Knee Concentration of Compound [1, 5]: 4790 ng/g | Mean Knee/Plasma Concentration Ratio [1, 5]: 43100 | Mean Knee/Plasma Concentration Ratio ([1]; 0.1 mg/knee, 1344 hr): 77400 | Knee concentration: Ratio of Form 3 Compound/Form 1 Compound ([1]; 1 mg/knee, 672 hr): 5.40 | Knee/plasma ratio: Ratio of Form 3 Compound/Form 1 Compound ([1]; 1 mg/knee, 672 hr): 2.64 | Mean Knee Concentration of Compound ([1]; 1 mg/knee, 672 hr, monohydrate): 202000 ng/g | Mean Knee/Plasma Concentration Ratio ([1]; 1 mg/knee, 672 hr, monohydrate): 58300 | Knee concentration: Ratio of Form 3 Compound/Form 1 Compound ([1]; 1 mg/knee, 1344 hr): 13.6 | Knee/plasma ratio: Ratio of Form 3 Compound/Form 1 Compound ([1]; 1 mg/knee, 1344 hr): 1.96 | Mean Knee Concentration of Compound [1, 6]: 62200 ng/g | Mean Knee/Plasma Concentration Ratio [1, 6]: 37200 | concentration at 1344 hr ([1]; male, Sprague Dawley, rat, knee joint, other: intra-articular injection to the left knee joint, 0.1 mg/knee, 1344 hr, read-out: Mean Knee Concentration of Compound): 383 ng/g | hygroscopicity (dynamic vapor sorption isotherm) (Dynamic vapor sorption): not hygroscopic | Tmax ([2]; Sprague Dawley, 1 mg/knee intra-articular): 4 h | absorption compared to Form 1 Compound ([2]; intra-articular, rat): slower and more prolonged | AUC0-inf ([2]; male, Sprague Dawley, rat, 1 mg, 1 mg/knee intra-articular, read-out: AUC0-inf): 8040 ng·h/mL | Cmax ([2]; male, Sprague Dawley, rat, 1 mg, 1 mg/knee intra-articular, read-out: Cmax): 52.1 ng/mL | AUC(0-t) ([2]; male, Sprague Dawley, rat, 1 mg, 1 mg/knee intra-articular, summary from second six animals, read-out: AUC0-1344): 7100 ng·h/mL | Ratio Result from Compound Form 3/Compound Form 1: AUC0-672 ([2]; 0.1 mg/knee): 0.508 | Ratio Result from Compound Form 3/Compound Form 1: AUC0-1344 ([2]; 0.1 mg/knee): 0.611 | Ratio Result from Compound Form 3/Compound Form 1: AUC0-inf ([2]; 0.1 mg/knee): 0.587 | Ratio Result from Compound Form 3/Compound Form 1: Cmax ([2]; 0.1 mg/knee): 0.332 | Ratio Result from Compound Form 3/Compound Form 1: AUC0-672 ([2]; 1 mg/knee): 0.494 | Ratio Result from Compound Form 3/Compound Form 1: AUC0-1344 ([2]; 1 mg/knee): 0.640 | Ratio Result from Compound Form 3/Compound Form 1: AUC0-inf ([2]; 1 mg/knee): 0.681 | Ratio Result from Compound Form 3/Compound Form 1: Cmax ([2]; 1 mg/knee): 0.728 | AUC0-672 [2, 7]: 686 ng·h/mL | AUC0-inf [2, 7]: 757 ng·h/mL | Cmax [2, 7]: 11.4 ng/mL | AUC0-1344 ([2]; 0.1 mg/knee intra-articular, summary from second six animals, monohydrate): 813 ng·h/mL | AUC0-672 [2, 8]: 5240 ng·h/mL | thermodynamic stability compared to monohydrate Form 1 [3]: thermodynamically more stable | temperature of dehydration ([3]; heated): 130 °C | average release rate [4]: 0.35 %/hr | one-half dissolution time [4]: 112 h | dialysis dissolution rate compared to Form 1 ([4]; simulated intra-articular fluid): significantly lower
